In paper PMC2694132 (Cancer research, 2009):

Columns and labels:
UGT1A1 = target: T1, UGT1A1 (Homo sapiens, UniProt P22309); experiment: SAHA glucuronidation screen, UGT1A1-overexpressing cell homogenate; format: in vitro ADME
T1 sequence (P22309 26-533): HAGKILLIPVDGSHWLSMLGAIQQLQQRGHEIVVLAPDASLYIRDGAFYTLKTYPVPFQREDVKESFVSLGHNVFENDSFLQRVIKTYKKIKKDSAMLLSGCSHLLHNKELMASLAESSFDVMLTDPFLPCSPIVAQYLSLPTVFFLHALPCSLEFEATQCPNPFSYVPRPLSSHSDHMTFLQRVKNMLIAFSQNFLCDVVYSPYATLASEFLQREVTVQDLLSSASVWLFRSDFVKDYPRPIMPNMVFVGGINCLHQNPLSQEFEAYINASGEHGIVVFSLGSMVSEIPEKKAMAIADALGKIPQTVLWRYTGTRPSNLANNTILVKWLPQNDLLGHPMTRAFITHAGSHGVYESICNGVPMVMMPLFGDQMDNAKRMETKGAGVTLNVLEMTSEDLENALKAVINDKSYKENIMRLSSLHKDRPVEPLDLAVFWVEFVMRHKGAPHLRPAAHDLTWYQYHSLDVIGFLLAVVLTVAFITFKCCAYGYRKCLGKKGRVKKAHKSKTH

[1] = SAHA glucuronidation in human colon homogenate; format: in vitro ADME; conditions: 200 μg protein
UGT1A5 = target: T2, UGT1A5 (Homo sapiens, UniProt P35504); experiment: SAHA glucuronidation screen, UGT1A5-overexpressing cell homogenate; format: in vitro ADME; conditions: 400 μg UGT-overexpressing cell homogenate, 1-h incubation
T2 sequence (P35504 29-534): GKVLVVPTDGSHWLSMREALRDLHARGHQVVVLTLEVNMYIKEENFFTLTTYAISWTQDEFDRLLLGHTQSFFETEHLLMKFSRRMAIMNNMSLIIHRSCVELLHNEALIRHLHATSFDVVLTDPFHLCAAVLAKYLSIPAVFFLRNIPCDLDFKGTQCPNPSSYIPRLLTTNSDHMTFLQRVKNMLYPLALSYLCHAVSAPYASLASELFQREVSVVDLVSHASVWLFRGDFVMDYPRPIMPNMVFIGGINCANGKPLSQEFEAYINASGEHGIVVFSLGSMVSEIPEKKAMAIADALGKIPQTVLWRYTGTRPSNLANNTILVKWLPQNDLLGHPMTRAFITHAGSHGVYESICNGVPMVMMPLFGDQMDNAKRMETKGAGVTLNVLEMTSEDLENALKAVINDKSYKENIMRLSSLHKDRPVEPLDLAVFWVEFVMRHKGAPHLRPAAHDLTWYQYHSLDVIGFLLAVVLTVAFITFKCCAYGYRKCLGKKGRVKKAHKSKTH

in vitro = conditions: human, pH 7.5
UGT2B15 = target: T3, UGT2B15 (Homo sapiens, UniProt P54855); experiment: SAHA glucuronidation screen, UGT2B15-overexpressing cell homogenate; format: in vitro ADME; conditions: 400 μg UGT-overexpressing cell homogenate, 1-h incubation
T3 sequence (P54855 24-530): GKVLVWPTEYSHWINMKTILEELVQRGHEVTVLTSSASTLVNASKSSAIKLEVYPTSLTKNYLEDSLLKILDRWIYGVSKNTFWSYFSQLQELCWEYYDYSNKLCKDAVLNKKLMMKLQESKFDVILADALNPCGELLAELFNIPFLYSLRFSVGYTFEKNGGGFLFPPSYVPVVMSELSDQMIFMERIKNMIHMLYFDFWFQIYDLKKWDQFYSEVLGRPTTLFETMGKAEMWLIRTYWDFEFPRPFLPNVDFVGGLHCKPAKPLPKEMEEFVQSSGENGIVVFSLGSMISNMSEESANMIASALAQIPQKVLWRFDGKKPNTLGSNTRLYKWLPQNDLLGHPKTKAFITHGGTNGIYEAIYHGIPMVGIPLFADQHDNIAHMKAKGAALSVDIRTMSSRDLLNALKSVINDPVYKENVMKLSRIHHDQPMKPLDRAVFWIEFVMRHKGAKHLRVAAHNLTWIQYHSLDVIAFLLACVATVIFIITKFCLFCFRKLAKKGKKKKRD

UGT2B17 = target: T4, UGT2B17 (Homo sapiens, UniProt O75795); experiment: SAHA glucuronidation, UGT2B17-overexpressing HEK293 cell homogenate; format: in vitro ADME
T4 sequence (O75795 24-530): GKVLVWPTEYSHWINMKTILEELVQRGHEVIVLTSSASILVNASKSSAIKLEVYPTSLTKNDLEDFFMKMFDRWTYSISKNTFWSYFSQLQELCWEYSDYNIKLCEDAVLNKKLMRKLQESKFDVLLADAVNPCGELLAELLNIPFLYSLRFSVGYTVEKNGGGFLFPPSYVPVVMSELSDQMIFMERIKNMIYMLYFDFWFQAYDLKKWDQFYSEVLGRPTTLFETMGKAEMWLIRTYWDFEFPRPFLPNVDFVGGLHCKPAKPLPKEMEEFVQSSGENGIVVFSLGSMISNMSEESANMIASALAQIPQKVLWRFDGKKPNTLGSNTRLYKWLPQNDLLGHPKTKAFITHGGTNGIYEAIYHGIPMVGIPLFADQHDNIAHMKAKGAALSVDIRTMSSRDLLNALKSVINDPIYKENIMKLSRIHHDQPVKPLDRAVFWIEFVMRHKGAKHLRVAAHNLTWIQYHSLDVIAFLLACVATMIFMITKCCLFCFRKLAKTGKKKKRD

UGT1A8 = target: T5, UGT1A8 (Homo sapiens, UniProt Q9HAW9); experiment: SAHA glucuronidation, wild-type UGT1A8; format: in vitro ADME
T5 sequence (Q9HAW9 26-530): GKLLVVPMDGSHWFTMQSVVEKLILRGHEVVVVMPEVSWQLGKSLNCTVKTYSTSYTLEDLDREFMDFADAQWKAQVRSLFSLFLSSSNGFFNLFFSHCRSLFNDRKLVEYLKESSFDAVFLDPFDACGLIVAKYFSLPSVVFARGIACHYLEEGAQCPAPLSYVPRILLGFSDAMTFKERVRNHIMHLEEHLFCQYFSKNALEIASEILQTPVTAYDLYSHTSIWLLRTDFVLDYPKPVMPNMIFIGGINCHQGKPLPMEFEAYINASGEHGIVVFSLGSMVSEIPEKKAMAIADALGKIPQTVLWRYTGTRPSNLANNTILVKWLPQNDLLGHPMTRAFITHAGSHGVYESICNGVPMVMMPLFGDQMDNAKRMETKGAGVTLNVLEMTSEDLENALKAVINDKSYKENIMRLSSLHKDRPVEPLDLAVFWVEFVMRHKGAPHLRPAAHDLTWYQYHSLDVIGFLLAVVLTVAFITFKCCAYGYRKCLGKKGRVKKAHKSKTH

[2] = 400 μg UGT-overexpressing cell homogenate, 1-h incubation

For `O=C(CCCCCCC(=O)Nc1ccccc1)NO` [SAHA, Suberoylanilide hydroxamic acid], the Km at 1 h (UGT1A1; human, UGT1A1-overexpressing cell homogenate, pH 7.5) was > 8000 µM, the “glucuronidation against SAHA” value (UGT1A1; in vitro, UGT-overexpressing cell homogenate) was “detectable levels of glucuronidation” and the “glucuronidation activity against SAHA” value [1] was “significant levels of glucuronidation activity”. For the same molecule, the “glucuronidation activity against SAHA (screen)” value (UGT1A5) was “No detectable glucuronidation activity”, the Km (in vitro; human liver microsomes from UGT2B17 (*1/*1) subjects) was 1200 µM and the Km (in vitro; human liver microsomes from UGT2B17 (*2/*2) subjects) was 2100 µM. For the same molecule, the “glucuronidation activity against SAHA (screen)” value (UGT2B15) was “No detectable glucuronidation activity”, the “glucuronidation against SAHA (screen)” value (UGT2B17; [2]) was “high levels of glucuronidation” and the “apparent KM of UGT2B17 lower than that of UGT1A3” value (UGT2B17; against SAHA) was 11 fold. The “apparent KM of UGT2B17 lower than that of UGT1A9” value (UGT2B17; against SAHA) was 5 fold, the “higher level of glucuronidation activity (Vmax/KM) of UGT2B17 compared with UGT1A3” value (UGT2B17; against SAHA) was 9.4 fold and the “higher level of glucuronidation activity (Vmax/KM) of UGT2B17 compared with UGT1A9” value (UGT2B17; against SAHA) was 2.3 fold. For the same molecule, the Km at 1 h (UGT2B17; human, UGT2B17-overexpressing HEK293 cell homogenate, pH 7.5) was 300 ± 100 µM, the “glucuronidation against SAHA (screen)” value (UGT1A8; [2]) was “high levels of glucuronidation” and the Km at 1 h (UGT1A8; human, pH 7.5) was 1900 ± 100 µM.
